Here are results for 21 compounds from patent US8163793B2, “Proline derivatives” (Hoffman-La Roche Inc., priority 2009, dated 2012).

The term IC50 denotes the concentration at which inhibition is half-maximal.

One experiment has as its target Cat L (UniProt P07711). The experiment is described as follows: Cathepsin enzyme inhibition assay (fluorogenic peptide substrate Z-Val-Val-Arg-AMC), Cathepsin L. It is filed as biochemical, human and mouse. Conditions: enzyme 1 nM, substrate 20 μM, pH 6.5; read-out: CatL IC50. The essentials:
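Fluorogenic cleavage of Z-Val-Val-Arg-AMC (20 μM) by 1 nM Cat L was monitored at ex 360/em 465 nm for 20 min, the linear phase. The buffer was 100 mM potassium phosphate pH 6.5 with 5 mM EDTA and DTT. IC50 values were derived by standard methods, in μM.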

In another experiment the target is Cathepsin S (UniProt P25774). The experiment is described as follows: Cathepsin enzyme inhibition assay (fluorogenic peptide substrate Z-Val-Val-Arg-AMC), Cathepsin S. It is filed as biochemical, human and mouse. Conditions: enzyme 1 nM, substrate 20 μM, pH 6.5; read-out: CatS IC50. Summed up:
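Compounds were combined with 1 nM human or mouse enzyme, and substrate then started the reaction. The buffer was potassium phosphate (100 mM, pH 6.5) containing EDTA-Na 5 mM, Triton X-100 0.001% and […] 5 mM.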

Structures are written as SMILES. A value given as a limit tells only on which side of the number the result lay.

Consider `Cc1cc(N2C[C@H](S(=O)(=O)c3ccccc3C(F)(F)F)C[C@H]2C(=O)NC2(C#N)CC2)n(-c2ccc(F)cc2)n1` [Example 195, (2S,4R)-1-[2-(4-Fluoro-phenyl)-5-methyl-2H-pyrazol-3-yl]-4-(2-trifluoromethyl-benzenesulfonyl)-pyrrolidine-2-carboxylic acid (1-cyano-cyclopropyl)-amide], for which the IC50 at Cat L is ≥ 25000 nM; at Cathepsin S it was 3.6 nM.
Taken in the same sequence, the figures for `Cc1cc(N2C[C@H](S(=O)(=O)c3ccccc3C(F)(F)F)C[C@H]2C(=O)NC2(C#N)CC2)n(-c2cc[nH]c(=O)c2)n1` [Example 196, (2S,4R)-1-[5-Methyl-2-(2-oxo-1,2-dihydro-pyridin-4-yl)-2H-pyrazol-3-yl]-4-(2-trifluoromethyl-benzenesulfonyl)-pyrrolidine-2-carboxylic acid (1-cyano-cyclopropyl)-amide] were 41400 nM and 0.3 nM.
For `C[C@H](Oc1ccc(S(=O)(=O)[C@@H]2C[C@@H](C(=O)NC3(C#N)CC3)N(C(=O)C3CC3)C2)c(Cl)c1)C(F)(F)F` [Example 197, (2S,4R)-4-[2-Chloro-4-((S)-2,2,2-trifluoro-1-methyl-ethoxy)-benzenesulfonyl]-1-cyclopropanecarbonyl-pyrrolidine-2-carboxylic acid (1-cyano-cyclopropyl)-amide], the IC50 at Cat L worked out at 19000 nM; on Cathepsin S, 0.9 nM.
Turning to `C[C@H](Oc1ccc(S(=O)(=O)[C@@H]2C[C@H](C(=O)NC3(C#N)CC3)N(C(=O)C3CC3)C2)c(Cl)c1)C(F)(F)F` [Example 198, (2R,4R)-4-[2-Chloro-4-((S)-2,2,2-trifluoro-1-methyl-ethoxy)-benzenesulfonyl]-1-cyclopropanecarbonyl-pyrrolidine-2-carboxylic acid (1-cyano-cyclopropyl)-amide], the IC50 on Cat L was ≥ 25000 nM; on Cathepsin S, 27 nM.
For `C[C@H](Oc1ccc(S(=O)(=O)[C@@H]2C[C@@H](C(=O)NC3(C#N)CC3)N(C(=O)C3(C)CC3)C2)c(Cl)c1)C(F)(F)F` [Example 199, (2S,4R)-4-[2-Chloro-4-((S)-2,2,2-trifluoro-1-methyl-ethoxy)-benzenesulfonyl]-1-(1-methyl-cyclopropanecarbonyl)-pyrrolidine-2-carboxylic acid (1-cyano-cyclopropyl)-amide], in that order: 7740 nM and 0.5 nM.
As for `C[C@H](Oc1ccc(S(=O)(=O)[C@@H]2C[C@H](C(=O)NC3(C#N)CC3)N(C(=O)C3(C)CC3)C2)c(Cl)c1)C(F)(F)F` [Example 200, (2R,4R)-4-[2-Chloro-4-((S)-2,2,2-trifluoro-1-methyl-ethoxy)-benzenesulfonyl]-1-(1-methyl-cyclopropanecarbonyl)-pyrrolidine-2-carboxylic acid (1-cyano-cyclopropyl)-amide], the IC50 at Cat L was ≥ 25000 nM; on Cathepsin S, 46.7 nM.
For `N#CC1(NC(=O)[C@@H]2C[C@@H](S(=O)(=O)c3ccc(OC4COC4)cc3Cl)CN2C(=O)C2(C(F)(F)F)CC2)CC1` [Example 201, (2S,4R)-4-[2-Chloro-4-(oxetan-3-yloxy)-benzenesulfonyl]-1-(1-trifluoromethyl-cyclopropanecarbonyl)-pyrrolidine-2-carboxylic acid (1-cyano-cyclopropyl)-amide], in that order: ≥ 25000 nM and 3.4 nM.
Take `N#CC1(NC(=O)[C@@H]2C[C@@H](S(=O)(=O)c3ccccc3C(F)(F)F)CN2C(=O)C2(c3ccc(Cl)cc3)CC2)CC1` [Example 202, (2S,4R)-1-[1-(4-Chloro-phenyl)-cyclopropanecarbonyl]-4-(2-trifluoromethyl-benzenesulfonyl)-pyrrolidine-2-carboxylic acid (1-cyano-cyclopropyl)-amide]: the results for the IC50 on Cat L and at Cathepsin S were 606 nM and 0.1 nM, respectively.
For `C[C@H](Oc1ccc(S(=O)(=O)[C@@H]2C[C@@H](C(=O)NC3(C#N)CC3)N(C(=O)C(C)(C)C)C2)c(Cl)c1)C(F)(F)F` [Example 203, (2S,4R)-4-[2-Chloro-4-((S)-2,2,2-trifluoro-1-methyl-ethoxy)-benzenesulfonyl]-1-(2,2-dimethyl-propionyl)-pyrrolidine-2-carboxylic acid (1-cyano-cyclopropyl)-amide], in that order: 9330 nM and 0.8 nM.
Taken in the same sequence, the figures for `C[C@H](Oc1ccc(S(=O)(=O)[C@@H]2C[C@H](C(=O)NC3(C#N)CC3)N(C(=O)C(C)(C)C)C2)c(Cl)c1)C(F)(F)F` [Example 204, (2R,4R)-4-[2-Chloro-4-((S)-2,2,2-trifluoro-1-methyl-ethoxy)-benzenesulfonyl]-1-(2,2-dimethyl-propionyl)-pyrrolidine-2-carboxylic acid (1-cyano-cyclopropyl)-amide] were ≥ 25000 nM and 205 nM.
Regarding `N#CC1(NC(=O)[C@@H]2C[C@@H](S(=O)(=O)c3ccccc3C(F)(F)F)CN2C(=O)C2(C(F)(F)F)CC2)CC1` [Example 205, (2S,4R)-4-(2-Trifluoromethyl-benzenesulfonyl)-1-(1-trifluoromethyl-cyclopropanecarbonyl)-pyrrolidine-2-carboxylic acid (1-cyano-cyclopropyl)-amide], the IC50 at Cat L amounted to 72000 nM; on Cathepsin S it was 0.2 nM.
Regarding `N#CC1(NC(=O)[C@@H]2C[C@@H](S(=O)(=O)c3ccccc3C(F)(F)F)CN2C(=O)CC(F)(F)F)CC1` [Example 206, (2S,4R)-4-(2-Trifluoromethyl-benzenesulfonyl)-1-(3,3,3-trifluoro-propionyl)-pyrrolidine-2-carboxylic acid (1-cyano-cyclopropyl)-amide], the results for the IC50 at Cat L and on Cathepsin S were ≥ 25000 nM and 0.2 nM, respectively.
For `CC1(C(=O)N2C[C@H](S(=O)(=O)c3ccccc3C(F)(F)F)C[C@H]2C(=O)NC2(C#N)CC2)CC1` [Example 207, (2S,4R)-1-(1-Methyl-cyclopropanecarbonyl)-4-(2-trifluoromethyl-benzenesulfonyl)-pyrrolidine-2-carboxylic acid (1-cyano-cyclopropyl)-amide], the IC50 was ≥ 25000 nM on Cat L and 0.3 nM at Cathepsin S.
Consider `CC(C)(C)OC(=O)N1C[C@H](S(=O)(=O)c2ccc(OCC(F)(F)F)cc2C(F)(F)F)C[C@H]1C(=O)NC1(C#N)CC1` [Example 208, (2S,4R)-2-(1-Cyano-cyclopropylcarbamoyl)-4-[4-(2,2,2-trifluoro-ethoxy)-2-trifluoromethyl-benzenesulfonyl]-pyrrolidine-1-carboxylic acid tert-butyl ester], for which the IC50 at Cat L was ≥ 25000 nM; on Cathepsin S it was 0.8 nM.
On to `N#CC1(NC(=O)[C@@H]2C[C@@H](S(=O)(=O)c3ccc(F)cc3C(F)(F)F)CN2C(=O)C2(C(F)(F)F)CC2)CC1` [Example 209, (2S,4R)-4-(4-Fluoro-2-trifluoromethyl-benzenesulfonyl)-1-(1-trifluoromethyl-cyclopropanecarbonyl)-pyrrolidine-2-carboxylic acid (1-cyano-cyclopropyl)-amide], for which the IC50 at Cat L is ≥ 25000 nM; at Cathepsin S, 0.2 nM.
For `CC(C)(C)C(=O)N1C[C@H](S(=O)(=O)c2ccc(F)cc2C(F)(F)F)C[C@H]1C(=O)NC1(C#N)CC1` [Example 210, (2S,4R)-1-(2,2-Dimethyl-propionyl)-4-(4-fluoro-2-trifluoromethyl-benzenesulfonyl)-pyrrolidine-2-carboxylic acid (1-cyano-cyclopropyl)-amide], the IC50 at Cat L was ≥ 25000 nM; at Cathepsin S, 0.4 nM.
Turning to `CC1(C(=O)N2C[C@H](S(=O)(=O)c3ccc(OCC(F)(F)F)cc3C(F)(F)F)C[C@H]2C(=O)NC2(C#N)CC2)CC1` [Example 211, (2S,4R)-1-(1-Methyl-cyclopropanecarbonyl)-4-[4-(2,2,2-trifluoro-ethoxy)-2-trifluoromethyl-benzenesulfonyl]-pyrrolidine-2-carboxylic acid (1-cyano-cyclopropyl)-amide], the half-inhibitory concentration (IC50) amounted to 63900 nM on Cat L and 0.3 nM on Cathepsin S.
For `CC(C)(C)C(=O)N1C[C@H](S(=O)(=O)c2ccc(OCC(F)(F)F)cc2C(F)(F)F)C[C@H]1C(=O)NC1(C#N)CC1` [Example 212, (2S,4R)-1-(2,2-Dimethyl-propionyl)-4-[4-(2,2,2-trifluoro-ethoxy)-2-trifluoromethyl-benzenesulfonyl]-pyrrolidine-2-carboxylic acid (1-cyano-cyclopropyl)-amide], in that order: ≥ 25000 nM and 0.3 nM.
Take `N#CC1(NC(=O)[C@@H]2C[C@@H](S(=O)(=O)c3ccccc3Cl)CN2C(=O)C2(C(F)(F)F)CC2)CC1` [Example 213, (2S,4R)-4-(2-Chloro-benzenesulfonyl)-1-(1-trifluoromethyl-cyclopropanecarbonyl)-pyrrolidine-2-carboxylic acid (1-cyano-cyclopropyl)-amide]: the half-inhibitory concentration (IC50) was 7970 nM on Cat L and 0.4 nM on Cathepsin S.
For `CC1(C(=O)N2C[C@H](S(=O)(=O)c3ccccc3Cl)C[C@H]2C(=O)NC2(C#N)CC2)CC1` [Example 214, (2S,4R)-4-(2-Chloro-benzenesulfonyl)-1-(1-methyl-cyclopropanecarbonyl)-pyrrolidine-2-carboxylic acid (1-cyano-cyclopropyl)-amide], in that order: 11300 nM and 0.5 nM.
For `N#CC1(NC(=O)[C@@H]2C[C@@H](S(=O)(=O)c3ccccc3Cl)CN2C(=O)C2(c3ccccc3)CC2)CC1` [Example 216, (2S,4R)-4-(2-Chloro-benzenesulfonyl)-1-(1-phenyl-cyclopropanecarbonyl)-pyrrolidine-2-carboxylic acid (1-cyano-cyclopropyl)-amide], in that order: 285 nM and 0.2 nM.
